In patent publication US9999616B2 (ZENITH EPIGENETICS LTD., priority 2013, dated 2018):

Key:
[1] = test system: hIL-6 mRNA; test: Inhibition of hIL-6 mRNA transcription in LPS-stimulated U937 macrophages; assay type: cell-based, Human; settings: Homo sapiens, U-937, PMA-differentiated U937 cells, 1 h pretreatment, LPS 3 h, read-out: IL-6 activity
In short: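 PMA-differentiated U937 macrophages (60 ng/mL PMA, 3 days) pretreated 1 h with compound in 0.1% DMSO, then stimulated with 1 ug/mL E. coli LPS for 3 h at 37° C. IL-6 mRNA quantified by one-step TaqMan qRT-PCR, normalized to cyclophilin; fold expression relative to control, triplicate wells.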

[2] = test system: hIL-17 mRNA; test: Inhibition of hIL-17 mRNA transcription in OKT3-stimulated peripheral blood mononuclear cells; assay type: cell-based; settings: human PBMC, OKT3 stimulation 6 h, read-out: IL-17 Activity
Protocol: Human peripheral blood mononuclear cells were plated (2.0×10^5 cells per well) in a 96-well plate in 45 μL OpTimizer T Cell expansion media (Life Technologies) containing 20 ng/ml IL-2 and penicillin/streptomycin. The cells were treated with increasing concentrations of the test compound or DMSO (0.1%), and incubated at 37° C., 5% CO2 for 1 h before addition of 10× stock OKT3 antibody at 10 ug/ml in media. Triplicate wells were used for each concentration. Cells were incubated at 37° C., 5% CO2 for 6 h before the cells were harvested. At time of harvest, cells were pelleted by centrifugation at 800 rpm for 5 min. Cells were harvested using the mRNA Catcher PLUS kit according to manufacturer's instructions. The eluted mRNA was then used in a one-step quantitative real-time PCR reaction, using components of the RNA UltraSense™ One-Step Kit (Life Technologies) together with Applied Biosystems TaqMan® primer-probes for hIL-17 and Cyclophilin. Real-time PCR plates were run on a ViiA™7 real time PCR machine (Applied Biosystems), data was analyzed, normalizing the Ct values for hIL-17 to an internal control, prior to determining the fold induction of each unknown sample, relative to the control.

[3] = test system: c-myc in Human AML MV4-11 cells; test: Inhibition of cMYC expression (mRNA, real-time PCR) in MV4-11 cells; assay type: cell-based; settings: 3 h treatment, cMYC mRNA by real-time PCR
In short: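 MV4-11 cells in IMDM with 10% FBS were treated with increasing compound concentrations (DMSO 0.1%) for 3 h at 37 °C, in triplicate. Isolated mRNA was quantified by one-step TaqMan RT-qPCR, cMYC Ct normalized to cyclophilin, and fold expression given relative to DMSO control.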

[4] = molecular target: Brd4 bromodomain 1 (BRD4(1)) (Homo sapiens, UniProt O60885); test: Inhibition of tetra-acetylated histone H4 binding to Brd4 bromodomain 1, measured by FRET (HTRF); set-up: made in house; host or cells: E. coli BL21(DE3); settings: 2 h at room temperature
In short: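 Inhibition was read as a drop in 665 nm relative to 620 nm HTRF signal after 2 h at room temperature, with IC50 from dose-response curves in duplicate wells. Reactions held 200 nM E. coli-expressed His-tagged bromodomain and 25-50 nM biotinylated tetra-acetylated histone H4 peptide. Buffer was 30 mM HEPES pH 7.4 with KF, CHAPS, BSA and 0.2% DMSO.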

[5] = test system: Human AML MV-4-11 cells; test: Inhibition of cell proliferation in MV4-11 cells (CellTiter Aqueous One); assay type: cell-based; settings: MV4-11, 72 h
In short: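 MV4-11 cells, 5×10^4 per well in IMDM with 10% FBS, were exposed to increasing compound concentrations or 0.1% DMSO for 72 h at 37 °C in triplicate. Viability was read by MTS (CellTiter Aqueous One) absorbance at 490 nm after 3-4 h. IC50 was derived from background-corrected signal relative to DMSO.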

SMILES | IC50 [1] [nM] | IC50 [2] [nM] | IC50 [3] [nM] | IC50 [4] [nM] | IC50 [5] [nM]
Cc1nc2c(-c3cnccc3C(F)(F)F)cc(-c3c(C)noc3C)cc2[nH]1 [Example Compound 50, 3,5-dimethyl-4-(2-methyl-4-(4-(trifluoro-methyl)pyridin-3-yl)-1H-benzo[d]imidazol-6-yl)isoxazole] | ≤ 300 | 300 to 3000 | 300 to 3000 | ≤ 300 | ≤ 300
Cc1nc2c(-c3cccnc3C(F)(F)F)cc(-c3c(C)noc3C)cc2[nH]1 [Example Compound 59, 3,5-dimethyl-4-(2-methyl-4-(2-(trifluoro-methyl)pyridin-3-yl)-1H-benzo[d]imidazol-6-yl)isoxazole] | ≤ 300 | 300 to 3000 |  | ≤ 300 | ≤ 300
Cc1noc(C)c1-c1cc2c(c(-c3c(C)noc3C)c1)OCC(=O)N2 [Example Compound 11, 6,8-bis(3,5-dimethylisoxazol-4-yl)-2H-benzo[b][1,4]oxazin-3(4H)-one] | 300 to 3000 | 300 to 3000 | 300 to 3000 | ≤ 300 | 300 to 3000
Cc1nc2c(-c3ccc(N)nc3C)cc(-c3c(C)noc3C)cc2[nH]1 [Example Compound 68, 5-(6-(3,5-dimethyl-isoxazol-4-yl)-2-methyl-1H-benzo[d]imidazol-4-yl)-6-methyl-pyridin-2-amine] | ≤ 300 | ≤ 300 | ≤ 300 | ≤ 300 | ≤ 300
Cc1nc2c(-c3cc(C#N)ccc3C)cc(-c3c(C)noc3C)cc2[nH]1 [Example Compound 58, 3-(6-(3,5-dimethyl-isoxazol-4-yl)-2-methyl-1H-benzo[d]imidazol-4-yl)-4-methyl-benzonitrile] | ≤ 300 | 300 to 3000 |  | ≤ 300 | ≤ 300
Cc1nc2c(Nc3c(C)nn(C)c3C)cc(-c3c(C)noc3C)cc2[nH]1 [Example Compound 146, 6-(3,5-dimethyl-isoxazol-4-yl)-2-methyl-N-(1,3,5-trimethyl-1H-pyrazol-4-yl)-1H-benzo[d] imidazol-4-amine] | ≤ 300 | ≤ 300 | ≤ 300 | ≤ 300 | ≤ 300
Cc1noc(C)c1-c1cc(-c2c(C)noc2C)c2nc(C(C)C)[nH]c2c1 [Example Compound 45, 4,4′-(2-isopropyl-1H-benzo[d]imidazole-4,6-diyl)bis(3,5-dimethylisoxazole)] |  | 300 to 3000 | 300 to 3000 | ≤ 300 | 300 to 3000
Cc1noc(C)c1-c1cc(-c2c(C)noc2C)c2[nH]ncc2c1 [Example Compound 21, 4,4′-(1H-indazole-5,7-diyl)bis(3,5-dimethylisoxazole)] | 300 to 3000 | 300 to 3000 | 300 to 3000 | ≤ 300 | 300 to 3000
Cc1noc(C)c1-c1cc2c(c(-c3c(C)noc3C)c1)OCCN2 [Example Compound 13, 6,8-bis(3,5-dimethylisoxazol-4-yl)-3,4-dihydro-2H-benzo[b][1,4]oxazine] | 300 to 3000 | 300 to 3000 | 300 to 3000 | ≤ 300 | 300 to 3000
Cc1noc(C)c1-c1cc(-c2c(C)noc2C)c2c(C)c[nH]c2c1 [Example Compound 140, 4,4′-(3-methyl-1H-indole-4,6-diyl)bis(3,5-dimethylisoxazole)] | ≤ 300 | 300 to 3000 | ≤ 300 | ≤ 300 | ≤ 300
Cc1nc2c(-c3c(C(F)(F)F)nn(C)c3C)cc(-c3c(C)noc3C)cc2[nH]1 [Example Compound 66, 4-(4-(1,5-dimethyl-3-(trifluoro-methyl)-1H-pyrazol-4-yl)-2-methyl-1H-benzo[d]imidazol-6-yl)-3,5-dimethyl-isoxazole] | ≤ 300 | ≤ 300 | 300 to 3000 | ≤ 300 | ≤ 300
Cc1noc(C)c1-c1cc(-c2cccc(C(N)=O)c2C)c2nc(N3CCN(C)CC3)[nH]c2c1 [Example Compound 206, 3-(6-(3,5-dimethyl-isoxazol-4-yl)-2-(4-methyl-piperazin-1-yl)-1H-benzo[d]imidazol-4-yl)-2-methyl benzamide] | 300 to 3000 |  | 300 to 3000 | ≤ 300 | 300 to 3000

Further lines, results first:

IC50 [1] [nM] | IC50 [2] [nM] | IC50 [3] [nM] | IC50 [4] [nM] | IC50 [5] [nM] | SMILES
300 to 3000 | ≤ 300 | 300 to 3000 | 300 to 3000 | 300 to 3000 | Cc1noc(C)c1-c1cc(-c2ccccc2C(F)(F)F)c2nc[nH]c2c1 [Example Compound 19, 3,5-dimethyl-4-(4-(2-(trifluoromethyl)phenyl)-1H-benzo[d]imidazol-6-yl)isoxazole]
≤ 300 | 300 to 3000 | 300 to 3000 | ≤ 300 | 300 to 3000 | Cc1nc2c(-c3cc(F)ccc3C)cc(-c3c(C)noc3C)cc2[nH]1 [Example Compound 92, 4-(4-(5-fluoro-2-methyl-phenyl)-2-methyl-1H-benzo[d]imidazol-6-yl)-3,5-dimethyl isoxazole]
≤ 300 | 300 to 3000 | ≤ 300 | ≤ 300 | ≤ 300 | Cc1noc(C)c1Nc1cc(-c2c(C)noc2C)cc2[nH]cnc12 [Example Compound 42, N-(6-(3,5-dimethyl-isoxazol-4-yl)-1H-benzo[d]imidazol-4-yl)-3,5-dimethyl-isoxazol-4-amine]
≤ 300 | 300 to 3000 | ≤ 300 | ≤ 300 | ≤ 300 | Cc1noc(C)c1-c1cc(-c2cccc(C(N)=O)c2C)c2nc[nH]c2c1 [Example Compound 73, 3-(6-(3,5 dimethyl-isoxazol-4-yl)-1H-benzo[d]imidazol-4-yl)-2-methyl-benzamide]
≤ 300 | 300 to 3000 | 300 to 3000 | ≤ 300 | 300 to 3000 | Cc1noc(C)c1-c1cc(Nc2ccccc2)c2nc[nH]c2c1 [Example Compound 7, 6-(3,5-dimethylisoxazol-4-yl)-N-phenyl-1H-benzo[d] imidazol-4-amine]
 | 300 to 3000 | 300 to 3000 | ≤ 300 | 300 to 3000 | COc1ncccc1-c1cc(-c2c(C)noc2C)cc2[nH]cnc12 [Example Compound 48, 4-(4-(2-methoxy-pyridin-3-yl)-1H-benzo[d]imidazol-6-yl)-3,5-dimethyl isoxazole]
≤ 300 | 300 to 3000 | 300 to 3000 | ≤ 300 | 300 to 3000 | Cc1ccncc1-c1cc(-c2c(C)noc2C)cc2[nH]cnc12 [Example Compound 20, 3,5-dimethyl-4-(4-(4-methylpyridin-3-yl)-1H-benzo[d]imidazol-6-yl)isoxazole]
300 to 3000 |  | 300 to 3000 | ≤ 300 | ≤ 300 | Cc1ccc(C#N)cc1-c1cc(-c2c(C)noc2C)cc2[nH]c(NCc3ccccc3)nc12 [Example Compound 210, 3-(2-(benzylamino)-6-(3,5-dimethyl-isoxazol-4-yl)-1H-benzo[d]imidazol-4-yl)-4-methyl benzonitrile]
300 to 3000 |  | 300 to 3000 | 300 to 3000 | 300 to 3000 | Cc1noc(C)c1-c1cc(N(CCc2ccccc2)CCc2ccccc2)c2nc[nH]c2c1 [Example Compound 151, 6-(3,5-dimethyl-isoxazol-4-yl)-N,N-diphenethyl-1H-benzo[d] imidazol-4-amine]
